# Reference: US20180057467A1, “NOVEL TRIAZOLE DERIVATIVES” (BAYER CROPSCIENCE AKTIENGESELLSCHAFT, priority 2015, published 2018)
# Read-outs that look alike come from different tables or passages of the source. Marks after values point to notes of the source that are not given here.
# Key:
# [1] = tested on: Phakopsora pachyrhizi; assay: Example U: in vivo preventive test on Phakopsora test (soybeans), comparison vs. known compounds; settings: rate of application 5 ppm, evaluated 7 days after inoculation
# Procedure: Example U: In Vivo Preventive Test on Phakopsora Test (Soybeans); Comparison of Compounds According to the Invention Vs. Known Compounds
# After the spray coating has dried on, the plants are inoculated with an aqueous spore suspension of the causal agent of soybean rust (Phakopsora pachyrhizi) and stay for 24 h without light in an incubation cabinet at approximately 24° C. and a relative atmospheric humidity of 95%.
# The plants remain in the incubation cabinet at approximately 24° C. and a relative atmospheric humidity of approximately 80% and a day/night interval of 12 h.
# The test is evaluated 7 days after the inoculation.
# [2] = tested on: Venturia inaequalis; assay: Example T: in vivo preventive test on Venturia test (apples), comparison vs. known compounds; settings: rate of application 10 ppm, evaluated 10 days after inoculation
# Procedure: Example T: In Vivo Preventive Test on Venturia Test (Apples) Comparison of Compounds According to the Invention Vs. Known Compounds
# The plants are then placed in a greenhouse at approximately 21° C. and a relative atmospheric humidity of approximately 90%.
# The test is evaluated 10 days after the inoculation.
# [3] = LogP by HPLC on reversed phase columns (EEC directive 79/831 Annex V.A8); type: physicochemical
# Procedure: [table] If more than one Log P value is available within the same method, all the values are given and separated by “+”. […] Lambda-max-values were determined using UV-spectra from 200 nm to 400 nm and the peak values of the chromatographic signals.
# [4] = method [a]: LC-UV, acidic range, 0.1% formic acid in water and acetonitrile as eluent
# [5] = reversed phase HPLC column, method [a]: LC-UV, acidic range, 0.1% formic acid in water and acetonitrile as eluent, read-out: LogP
"LogP [3, 4]",SMILES,further results
–,OC(Cn1cncn1)(c1ccc(F)cc1F)C1(Oc2c(F)cc(Cl)cc2F)CC1 (racemic) [Example I-01],Efficacy in % [1]: 95%; Efficacy in % [2]: 98%; chromatographic logP ([3]; LogP): 3.57
–,OC(Cn1cncn1)(c1ccc(F)cc1F)C1(Oc2c(F)cc(Br)cc2F)CC1 (racemic) [Example I-03],Efficacy in % [1]: 89%; Efficacy in % [2]: 93%; chromatographic logP ([3]; LogP): 3.7
5.72^[a],Fc1ccc(C2(C3(Oc4c(Cl)cc(Br)cc4Cl)CC3)CO2)c(F)c1 (racemic) [Example V-08],–
5.27^[a],Fc1ccc(C2(C3(Oc4c(Cl)ccc(Cl)c4Cl)CC3)CO2)c(F)c1 (racemic) [Example V-09],–
4.20^[a],Fc1ccc(C2(C3(Oc4c(F)ccc(F)c4F)CC3)CO2)c(F)c1 (racemic) [Example V-10],–
5.51^[a],Fc1ccc(C2(C3(Oc4c(Cl)cc(C(F)(F)F)cc4Cl)CC3)CO2)c(F)c1 (racemic) [Example V-11],–
–,"OC(Cn1cncn1)(c1ccc(F)cc1)C1(Oc2ccc(Cl)cc2Cl)CC1 (centres unmarked) [DE-A 3522440 Ex. I-44, reference compound]",Efficacy in % [1]: 15%; Efficacy in % [2]: 0%
–,"OC(Cn1cncn1)(c1ccc(F)cc1F)C1(Oc2ccccc2)CC1 (centres unmarked) [DE-A 3522440 Ex. I-134, reference compound]",Efficacy in % [1]: 0%; Efficacy in % [2]: 76%
–,"OC(Cn1cncn1)(c1ccc(F)cc1F)C1(Oc2c(F)cc(F)cc2F)CC1 (centres unmarked) [Example I-02, 1-(2,4-difluorophenyl)-2-(1H-1,2,4-triazol-1-yl)-1-[1-(2,4,6-trifluorophenoxy)cyclopropyl]ethanol]",LogP [3]: 3.10^[b]; chromatographic logP ([3]; LogP): 3.11
–,"CC(=O)OC(Cn1cncn1)(c1ccc(F)cc1F)C1(Oc2c(F)cc(F)cc2F)CC1 (centres unmarked) [Example I-04, 1-(2,4-difluorophenyl)-2-(1H-1,2,4-triazol-1-yl)-1-[1-(2,4,6-trifluorophenoxy)cyclopropyl]ethyl acetate]",LogP [3]: 3.29^[b]; chromatographic logP ([3]; LogP): 3.32
–,"Fc1ccc(C2(C3(Oc4c(F)cc(F)cc4F)CC3)CO2)c(F)c1 (centres unmarked) [Example V-01, 2-(2,4-difluorophenyl)-2-[1-(2,4,6-trifluorophenoxy)cyclopropyl]oxirane]","chromatographic logP [3, 5]: 4.26; chromatographic logP ([3]; reversed phase HPLC column, method [b]: LC-UV, neutral range, 0.001 molar ammonium acetate solution in water and acetonitrile as eluent, read-out: LogP): 4.26"
4.98^[a],Fc1ccc(C2(C3(Oc4c(Cl)cc(F)cc4Cl)CC3)CO2)c(F)c1 (centres unmarked) [Example V-12],–
6.07^[a],Fc1ccc(C2(C3(Oc4c(Cl)cc(SC(F)(F)F)cc4Cl)CC3)CO2)c(F)c1 (centres unmarked) [Example V-13],–
5.23^[a],Fc1cc(Cl)ccc1C1(C2(Oc3c(F)cc(Cl)cc3F)CC2)CO1 (centres unmarked) [Example V-14],–
4.72^[a],Fc1cc(F)c(OC2(C3(c4ccc(Cl)cc4F)CO3)CC2)c(F)c1 (centres unmarked) [Example V-15],–
4.28^[a],Fc1ccc(C2(C3(Oc4ccc(F)c(F)c4F)CC3)CO2)c(F)c1 (centres unmarked) [Example V-16],–
4.10^[a],Fc1ccc(C2(C3(Oc4cc(F)c(F)cc4F)CC3)CO2)c(F)c1 (centres unmarked) [Example V-17],–
4.86^[a],Fc1ccc(C2(C3(Oc4cc(F)c(Br)c(F)c4)CC3)CO2)c(F)c1 (centres unmarked) [Example V-18],–
4.35^[a],Fc1ccc(C2(C3(Oc4c(F)ccc(F)c4Cl)CC3)CO2)c(F)c1 (centres unmarked) [Example V-19],–
–,"O=C(c1ccc(F)cc1F)C1(Oc2c(F)cc(F)cc2F)CC1 [IV-1, (2,4-difluorophenyl)[1-(2,4,6-trifluorophenoxy)cyclopropyl]methanone]","chromatographic logP [3, 5]: 3.96"

"LogP [3, 4]",SMILES,further results
4.44^[a],O=C(c1ccc(F)cc1F)C1(Oc2c(F)cc(Cl)cc2F)CC1 [IV-2],–
4.54^[a],O=C(c1ccc(F)cc1F)C1(Oc2c(F)cc(Br)cc2F)CC1 [IV-3],–
5.34^[a],O=C(c1ccc(F)cc1F)C1(Oc2c(Cl)cc(Cl)cc2Cl)CC1 [IV-4],–
4.76^[a],O=C(c1ccc(F)cc1F)C1(Oc2c(Cl)cc(F)cc2Cl)CC1 [IV-5],–
3.99^[a],O=C(c1ccc(F)cc1F)C1(Oc2c(F)ccc(F)c2F)CC1 [IV-6],–
5.01^[a],O=C(c1ccc(F)cc1F)C1(Oc2c(Cl)cc(Br)cc2Cl)CC1 [IV-7],–
5.03^[a],O=C(c1ccc(F)cc1F)C1(Oc2c(Cl)ccc(Cl)c2Cl)CC1 [IV-8],–
4.27^[a],O=C(c1ccc(F)cc1F)C1(Oc2c(F)ccc(Cl)c2F)CC1 [IV-9],–
4.20^[a],O=C(c1ccc(F)cc1F)C1(Oc2cc(F)c(F)c(F)c2)CC1 [IV-10],–
5.25^[a],O=C(c1ccc(F)cc1F)C1(Oc2c(Cl)cc(C(F)(F)F)cc2Cl)CC1 [IV-11],–
5.39^[a],O=C(c1ccc(F)cc1F)C1(Oc2c(Cl)cc(OC(F)(F)F)cc2Cl)CC1 [IV-12],–
5.85^[a],O=C(c1ccc(F)cc1F)C1(Oc2c(Cl)cc(SC(F)(F)F)cc2Cl)CC1 [IV-13],–
4.15^[a],N#Cc1cc(Cl)c(OC2(C(=O)c3ccc(F)cc3F)CC2)c(Cl)c1 [IV-14],–
4.49^[a],O=C(c1ccc(Cl)cc1F)C1(Oc2c(F)cc(F)cc2F)CC1 [IV-15],–
5.03^[a],O=C(c1ccc(Cl)cc1F)C1(Oc2c(F)cc(Cl)cc2F)CC1 [IV-16],–
4.01^[a],O=C(c1ccc(F)cc1F)C1(Oc2ccc(F)c(F)c2F)CC1 [IV-17],–
3.94^[a],O=C(c1ccc(F)cc1F)C1(Oc2cc(F)c(F)cc2F)CC1 [IV-18],–
4.54^[a],O=C(c1ccc(F)cc1F)C1(Oc2cc(F)c(Br)c(F)c2)CC1 [IV-19],–
4.25^[a],O=C(c1ccc(F)cc1F)C1(Oc2c(F)ccc(F)c2Cl)CC1 [IV-20],–
5.05^[a],O=C(c1ccc(Cl)cc1F)C1(Oc2c(F)cc(Br)cc2F)CC1 [IV-21],–

SMILES,"LogP [3, 4]",further results
"OC(Cn1cncn1)(c1ccc(F)cc1F)C1(Oc2c(F)cc(Cl)cc2F)CC1 (single isomer, unassigned) [Example I-19]",3.55^[a],–
"OC(Cn1cncn1)(c1ccc(F)cc1F)C1(Oc2c(F)cc(Cl)cc2F)CC1 (single isomer, unassigned) [Example I-20]",3.55^[a],–
"OC(Cn1cncn1)(c1ccc(F)cc1F)C1(Oc2c(F)cc(Br)cc2F)CC1 (single isomer, unassigned) [Example I-21]",3.63^[a],–
"OC(Cn1cncn1)(c1ccc(F)cc1F)C1(Oc2c(F)cc(Br)cc2F)CC1 (single isomer, unassigned) [Example I-22]",3.63^[a],–
